Measured values reported in patent publication US20240307350A1, “5-METHOXY-N,N-DIMETHYLTRYPTAMINE (5-MEO-DMT) FOR TREATING DEPRESSION” (GH RESEARCH IRELAND LIMITED, priority 2019, published 2024).

Tested on: healthy volunteers
Assay: Clinical trial in healthy volunteers: intensity of the psychedelic effects (PPEQ)
Format: in vivo, human
Conditions: for PPEQ Intensity (0-100) / PPEQ Loss of Control (0-100) / PPEQ Profoundness (0-100) / PPEQ Total Score (0-100): group average
Protocol: A clinical trial was performed in which 5-MeO-DMT free base (purity not less than 99%) at different dose levels was administered via inhalation (as described in Example 1) in a single day to healthy volunteers who had prior experiences with the use of synthetic or naturally-occurring psychedelics. The trial was reviewed and approved by the relevant national competent authority and local medical ethics committee. The trial consisted of two parts: Part A, where single doses of 5-MeO-DMT dosage amounts of 2 mg, 6 mg, 12 mg and 18 mg were administered; and Part B, where an initial 5-MeO-DMT dosage amount of 6 mg was administered, and then, unless the participant had already experienced a peak psychedelic experience based on the PPEQ or the supervising physician had decided that further dose increases were inappropriate based on observed side effects, further subsequent dosage amounts of 12 mg and 18 mg were administered with about 3 hours in between each administration. Participants in Part A only received one dose and were not allowed to receive higher doses in later parts of Part A and were not allowed to participate in Part B. Participants were closely monitored for 3.5 hours after the last dose, with additional follow-up visits 1 day and 7 days after dosing. Various safety related measures (e.g., adverse event reporting, safety laboratory analyses, vital signs, ECG, CADSS, PVT, DSST, Prospective Memory Task (PMT)) as well as measures of the intensity of the psychedelic effects (MEQ30, ASC, PPEQ, subjective description of the psychedelic experience) were recorded. Pharmacokinetic analysis of 5-MeO-DMT and bufotenine plasma levels was performed at 1 hour and 3 hours after drug administration in Part A, and at 3 hours after drug administration in Part B.
18 participants were recruited into Part A of the study and 4 participants were recruited into Part B. 9 Participants were female and 13 participants were male. Median age was 29 years (range: 19 to 42 years). In Part A, 4 participants received 2 mg, 6 participants received 6 mg, 4 participants received 12 mg and 4 participants received 18 mg of 5-MeO-DMT. In Part B, 1 participant received 6 mg, 2 participants received 6 mg and then 12 mg and one participant received 6 mg, 12 mg and then 18 mg of 5-MeO-DMT.
The Peak Psychedelic Experience Questionnaire (PPEQ) has been developed by the inventor as an improved alternative to the oceanic boundlessness dimension of the ASC and the MEQ30 to allow a simpler and quicker assessment of the intensity of a psychedelic experience. The PPEQ is comprised of three questions, all to be scored from 0 to 100 by marking a Visual Analogue Scale between 0 and 100 mm: • 1. How intense was the experience? • 2. To what extent did you lose control? • 3. How profound (i.e., deep and significant) was the experience?
The PPEQ Total Score is the average of the scores of the three questions. A “peak psychedelic experience” is identified through achievement of a PPEQ Total Score of at least 75. A statistically significant correlation between the PPEQ Total Score and the oceanic boundlessness dimension of the ASC, respectively the MEQ30 Total Score, has been observed in the data set described in Example 3.

[1] = Part B max. dose (n = 4), highest dose for each participant (6, 12 or 18 mg)

With `COc1ccc2[nH]cc(CCN(C)C)c2c1` [5-MeO-DMT, 5-methoxy-N,N-dimethyltryptamine] the “PPE achieved (fraction of participants who achieved a PPEQ Total Score of at least 75)” value (Part A 2 mg (n = 4)) was 0/4, the “PPEQ Intensity (0-100)” value (Part A 2 mg (n = 4)) was 16 and the “PPEQ Loss of Control (0-100)” value (Part A 2 mg (n = 4)) was 4. For the same compound, the “PPEQ Profoundness (0-100)” value (Part A 2 mg (n = 4)) was 7, the “PPEQ Total Score (0-100)” value (Part A 2 mg (n = 4)) was 9.0 and the “PPE achieved (fraction of participants who achieved a PPEQ Total Score of at least 75)” value (Part A 6 mg (n = 6)) was 1/6. For the same compound, the “PPEQ Intensity (0-100)” value (Part A 6 mg (n = 6)) was 53, the “PPEQ Loss of Control (0-100)” value (Part A 6 mg (n = 6)) was 37 and the “PPEQ Profoundness (0-100)” value (Part A 6 mg (n = 6)) was 42. The “PPEQ Total Score (0-100)” value (Part A 6 mg (n = 6)) was 43.8, the “PPE achieved (fraction of participants who achieved a PPEQ Total Score of at least 75)” value (Part A 12 mg (n = 4)) was 2/4 and the “PPEQ Intensity (0-100)” value (Part A 12 mg (n = 4)) was 78. For the same compound, the “PPEQ Loss of Control (0-100)” value (Part A 12 mg (n = 4)) was 69, the “PPEQ Profoundness (0-100)” value (Part A 12 mg (n = 4)) was 51 and the “PPEQ Total Score (0-100)” value (Part A 12 mg (n = 4)) was 65.5. The “PPE achieved (fraction of participants who achieved a PPEQ Total Score of at least 75)” value (Part A 18 mg (n = 4)) was 1/4, the “PPEQ Intensity (0-100)” value (Part A 18 mg (n = 4)) was 62 and the “PPEQ Loss of Control (0-100)” value (Part A 18 mg (n = 4)) was 80. The “PPEQ Profoundness (0-100)” value (Part A 18 mg (n = 4)) was 36, the “PPEQ Total Score (0-100)” value (Part A 18 mg (n = 4)) was 59.2 and the “PPE achieved (fraction of participants who achieved a PPEQ Total Score of at least 75)” value [1] was 4/4. For the same compound, the “PPEQ Intensity (0-100)” value [1] was 97, the “PPEQ Loss of Control (0-100)” value [1] was 94 and the “PPEQ Profoundness (0-100)” value [1] was 78. For the same compound, the “PPEQ Total Score (0-100)” value [1] was 89.3 and the “first psychedelic symptoms after the inhalation (onset)” value (all participants, 2 mg to 18 mg via inhalation) was “within a few seconds”.
